Patent US20230355558A1 (priority 2022, published 2023)

Test system: SARS-CoV-2
Assay type: cell-based

NCC1CCC(C(=O)[O][Ca][O]C(=O)C2CCC(CN)CC2)CC1 (stereo not shown) [Ca-TA, Calcium bis-tranexamate]
antiviral efficacy against SARS-CoV-2 infections and its emerging variants: desired antiviral efficacy
